# Tested on: hair follicles
# Experiment: Hair growth in 4-month old female mice, topical application to shaved dorsal skin
# Format: in vivo
# Protocol: The marked areas of the mice were applied by spreading topically on the exposed skin areas 60 μl of aqueous solutions of bovine lactoferrin (200 mg/ml), 60 μl of control vehicle (water), and 60 μl of bovine lactoferricin, obtained as set forth in Example 3, (200 mg/ml) twice daily. Observation for hair growth in the marked areas is made daily after the first treatment. […] The hair growth-promoting effect of lactoferrin or lactoferricin was consistently observed in all tested mice. Although lactoferricin was prepared by the method described in Example 3 above, the present invention should not be limited to use only lactoferricin prepared in such manner. Lactoferricin prepared by other methods would still fall within the scope of the present invention.
substance,measurement,setting,value
lactoferricin,amount of hair growth compared with area treated with lactoferrin of the same amount,"200 mg/ml topically twice daily, 10 days",greater amount of hair growth
same,hair growth observed in the treated skin area,"60 μl of 200 mg/ml topically twice daily, after 10 days, not seen with control vehicle",prominent hair growth
